Measured values published in patent US10758534B2 (Vertex Pharmaceuticals Incorporated, priority 2014, dated 2020).

Target: T1, F508del (Homo sapiens, UniProt P13569, DEL508-508)
T1 construct: expressed in transfected cells
Test: Protocol 1: membrane potential optical assay (FLIPR III, voltage sensing dye), identification of potentiator compounds
Assay type: cell-based
Details: Table 3, compounds of Table 1
How it was run: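 Read-out: change in voltage-sensing dye fluorescence (FLIPR III) as a measure of F508del conductance. Temperature-corrected (27° C, 24 hrs) NIH 3T3 cells expressing F508del are pretreated with potentiators, dye-loaded, then stimulated with forskolin under a chloride ion gradient using chloride-free gluconate bath.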

T1 sequence (P13569 with tags, fused parts or gaps DEL508-508): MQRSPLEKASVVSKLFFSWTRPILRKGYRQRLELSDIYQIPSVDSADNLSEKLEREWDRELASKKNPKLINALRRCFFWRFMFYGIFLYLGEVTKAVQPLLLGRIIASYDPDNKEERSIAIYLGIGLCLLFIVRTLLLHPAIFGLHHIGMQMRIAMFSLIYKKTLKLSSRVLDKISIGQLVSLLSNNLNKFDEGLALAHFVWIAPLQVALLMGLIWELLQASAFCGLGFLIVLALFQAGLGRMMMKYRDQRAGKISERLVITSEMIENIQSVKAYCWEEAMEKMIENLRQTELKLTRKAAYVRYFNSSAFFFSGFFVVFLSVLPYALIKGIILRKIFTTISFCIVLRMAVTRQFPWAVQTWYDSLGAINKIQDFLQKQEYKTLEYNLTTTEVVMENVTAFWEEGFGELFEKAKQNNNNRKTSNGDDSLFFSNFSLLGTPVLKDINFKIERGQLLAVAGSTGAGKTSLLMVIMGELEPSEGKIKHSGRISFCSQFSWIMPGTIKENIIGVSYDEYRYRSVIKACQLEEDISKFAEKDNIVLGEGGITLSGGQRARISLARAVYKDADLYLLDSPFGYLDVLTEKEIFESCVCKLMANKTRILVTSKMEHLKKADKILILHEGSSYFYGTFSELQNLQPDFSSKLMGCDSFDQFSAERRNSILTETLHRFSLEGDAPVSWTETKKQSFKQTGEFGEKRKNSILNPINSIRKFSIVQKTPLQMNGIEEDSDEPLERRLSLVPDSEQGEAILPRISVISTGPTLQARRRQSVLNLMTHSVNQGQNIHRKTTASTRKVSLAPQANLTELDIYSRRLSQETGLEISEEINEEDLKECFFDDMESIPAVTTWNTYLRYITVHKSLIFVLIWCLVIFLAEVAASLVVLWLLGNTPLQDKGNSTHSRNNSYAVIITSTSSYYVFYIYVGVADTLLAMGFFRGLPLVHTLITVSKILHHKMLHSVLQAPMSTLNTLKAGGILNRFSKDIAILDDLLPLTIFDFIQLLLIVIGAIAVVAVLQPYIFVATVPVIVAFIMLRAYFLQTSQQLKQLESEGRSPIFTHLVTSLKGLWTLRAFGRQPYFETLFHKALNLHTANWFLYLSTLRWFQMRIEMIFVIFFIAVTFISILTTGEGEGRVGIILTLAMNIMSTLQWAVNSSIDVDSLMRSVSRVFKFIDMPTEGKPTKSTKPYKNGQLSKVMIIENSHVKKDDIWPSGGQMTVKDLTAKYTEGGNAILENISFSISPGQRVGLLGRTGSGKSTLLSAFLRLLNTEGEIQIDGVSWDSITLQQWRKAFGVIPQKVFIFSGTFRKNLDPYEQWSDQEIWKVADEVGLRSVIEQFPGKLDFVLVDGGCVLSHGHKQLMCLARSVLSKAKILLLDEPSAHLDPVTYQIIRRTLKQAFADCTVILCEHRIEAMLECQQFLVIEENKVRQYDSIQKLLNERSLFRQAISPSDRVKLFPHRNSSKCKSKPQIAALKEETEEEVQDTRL

Structure (SMILES)	EC30
COc1cccc(S(=O)(=O)NC(=O)c2ccc(-c3cc(F)cc(OCC(C)C)c3)nc2N2C[C@@H](C)CC2(C)C)c1 [Compound 1452, 6-(3-fluoro-5-isobutoxy-phenyl)-N-(3-methoxyphenyl)sulfonyl-2-[(4S)-2,2,4-trimethylpyrrolidin-1-yl]pyridine-3-carboxamide]	+++ (“+++” means <3 uM)
CCOc1cccc2c1CN(Cc1c(C)cc(C)cc1C)C2(C)C(=O)NS(=O)(=O)c1ccc(O)cc1 (centres unmarked) [Compound 1453, 4-ethoxy-N-(4-hydroxyphenyl)sulfonyl-1-methyl-2-[(2,4,6-trimethylphenyl)methyl]isoindoline-1-carboxamide]	+++ (“+++” means <3 uM)
CCOc1cccc2c1CN(Cc1c(C)cc(C)cc1C)C2(C)C(=O)NS(=O)(=O)c1cccc(N)c1 (centres unmarked) [Compound 1454, N-(3-aminophenyl)sulfonyl-4-ethoxy-1-methyl-2-[(2,4,6-trimethylphenyl)methyl]isoindoline-1-carboxamide]	+++ (“+++” means <3 uM)
C[C@@H]1CN(c2nc(C3=COCC3)ccc2C(=O)NS(=O)(=O)c2cccc(N)n2)C(C)(C)C1 [Compound 1455, N-[(6-amino-2-pyridyl)sulfonyl]-6-(2,3-dihydrofuran-4-yl)-2-[(4S)-2,2,4-trimethylpyrrolidin-1-yl]pyridine-3-carboxamide]	+++ (“+++” means <3 uM)
Cc1cc(C)c(Oc2cc(-c3cc(F)cc(OCC(C)C)c3)cnc2C(=O)NS(=O)(=O)c2cccc(N)n2)c(C)c1 [Compound 1456, N-[(6-amino-2-pyridyl)sulfonyl]-5-(3-fluoro-5-isobutoxy-phenyl)-3-(2,4,6-trimethylphenoxy)pyridine-2-carboxamide]	+++ (“+++” means <3 uM)
CCOc1cccc2c1CN(Cc1c(C)cc(C)cc1C)C2(C)C(=O)NS(=O)(=O)c1ccccc1N (centres unmarked) [Compound 1457, N-(2-aminophenyl)sulfonyl-4-ethoxy-1-methyl-2-[(2,4,6-trimethylphenyl)methyl]isoindoline-1-carboxamide]	+++ (“+++” means <3 uM)
CC(C)COc1cc(F)cc(-c2ccc(C(=O)NS(=O)(=O)c3cccc(N)n3)c(OC3CC(F)(F)C3)n2)c1 [Compound 1458]	+++ (“+++” means <3 uM)
CC1CN(c2nc(C(C)(C)C)c(C3=CCC4(CC3)OCCO4)cc2C(=O)NS(=O)(=O)c2cccc(N)n2)C(C)(C)C1 (centres unmarked) [Compound 1459, N-[(6-amino-2-pyridyl)sulfonyl]-6-tert-butyl-5-(1,4-dioxaspiro[4.5]dec-8-en-8-yl)-2-(2,2,4-trimethylpyrrolidin-1-yl)pyridine-3-carboxamide]	+++ (“+++” means <3 uM)
Cc1cc(C)c(Oc2nc(C3=CC(C)(C)OCC3)ccc2C(=O)NS(=O)(=O)c2cccc(N)n2)c(C)c1 [Compound 1460, N-[(6-amino-2-pyridyl)sulfonyl]-6-(6,6-dimethyl-2,3-dihydropyran-4-yl)-2-(2,4,6-trimethylphenoxy)pyridine-3-carboxamide]	+++ (“+++” means <3 uM)
CC(=O)C1CC=C(c2cc(C(=O)NS(=O)(=O)c3cccc(N)n3)c(N3CC(C)CC3(C)C)nc2C(C)(C)C)CC1 (centres unmarked) [Compound 1461, 5-(4-acetylcyclohexen-1-yl)-N-[(6-amino-2-pyridyl)sulfonyl]-6-tert-butyl-2-(2,2,4-trimethylpyrrolidin-1-yl)pyridine-3-carboxamide]	+++ (“+++” means <3 uM)
C[C@@H]1CN(c2nc(C3=CC(C)(C)CCC3=O)ccc2C(=O)NS(=O)(=O)c2cccc(N)n2)C(C)(C)C1 [Compound 1462, N-[(6-amino-2-pyridyl)sulfonyl]-6-(3,3-dimethyl-6-oxo-cyclohexen-1-yl)-2-[(4S)-2,2,4-trimethylpyrrolidin-1-yl]pyridine-3-carboxamide]	+++ (“+++” means <3 uM)
CC(C)COc1cc(F)cc(-c2ccc(C(=O)NS(=O)(=O)c3cccc(N)n3)c(O[C@H]3CCOC3)n2)c1 [Compound 1464]	+++ (“+++” means <3 uM)
CC(C)COc1cc(F)cc(-c2ccc(C(=O)NS(=O)(=O)c3cccc(N)n3)c(OCCC3CCCCC3)n2)c1 [Compound 1465, N-[(6-amino-2-pyridyl)sulfonyl]-2-(2-cyclohexylethoxy)-6-(3-fluoro-5-isobutoxy-phenyl)pyridine-3-carboxamide]	+++ (“+++” means <3 uM)
Cc1cc(C)c(Oc2nc(C3CCOC(C)(C)C3)ccc2C(=O)NS(=O)(=O)c2cccc(N)n2)c(C)c1 (centres unmarked) [Compound 1466, N-[(6-amino-2-pyridyl)sulfonyl]-6-(2,2-dimethyltetrahydropyran-4-yl)-2-(2,4,6-trimethylphenoxy)pyridine-3-carboxamide]	++ (“++” means between 3 uM and 10 uM)
CC(C)COc1cc(F)cc(-c2ccc(C(=O)NS(=O)(=O)N3CCC(N)C3)c(N3CC(C)CC3(C)C)n2)c1 (centres unmarked) [Compound 1467, N-(3-aminopyrrolidin-1-yl)sulfonyl-6-(3-fluoro-5-isobutoxy-phenyl)-2-(2,2,4-trimethylpyrrolidin-1-yl)pyridine-3-carboxamide]	+++ (“+++” means <3 uM)
Cc1cccc(C)c1Cn1nc(C(C)(C)C)cc1C(=O)NS(=O)(=O)c1ccco1 [Compound 1468, 5-tert-butyl-2-[(2,6-dimethylphenyl)methyl]-N-(2-furylsulfonyl)pyrazole-3-carboxamide]	+++ (“+++” means <3 uM)
CC1CN(c2nc(C(C)(C)C)c(C3=CCCC4(C3)OCCO4)cc2C(=O)NS(=O)(=O)c2cccc(N)n2)C(C)(C)C1 (centres unmarked) [Compound 1469, N-[(6-amino-2-pyridyl)sulfonyl]-6-tert-butyl-5-(1,4-dioxaspiro[4.5]dec-8-en-9-yl)-2-(2,2,4-trimethylpyrrolidin-1-yl)pyridine-3-carboxamide]	++ (“++” means between 3 uM and 10 uM)
CCOc1cccc2c1CN(Cc1c(C)cc(C)cc1C)C2(C)C(=O)NS(=O)(=O)c1cccc(OC)c1 (centres unmarked) [Compound 1470, 4-ethoxy-N-(3-methoxyphenyl)sulfonyl-1-methyl-2-[(2,4,6-trimethylphenyl)methyl]isoindoline-1-carboxamide]	+++ (“+++” means <3 uM)
COc1cc(OC)cc(-c2ccc(C(=O)NS(=O)(=O)c3cccc(N)n3)c(N3C[C@@H](C)CC3(C)C)n2)c1 [Compound 1471, N-[(6-amino-2-pyridyl)sulfonyl]-6-(3,5-dimethoxyphenyl)-2-[(4S)-2,2,4-trimethylpyrrolidin-1-yl]pyridine-3-carboxamide]	+++ (“+++” means <3 uM)
Cc1cc(N)nc(S(=O)(=O)NC(=O)c2ccc(-c3cc(F)cc(OCC(C)C)c3)nc2N2C[C@@H](C)CC2(C)C)c1 [Compound 1472, N-[(6-amino-4-methyl-2-pyridyl)sulfonyl]-6-(3-fluoro-5-isobutoxy-phenyl)-2-[(4S)-2,2,4-trimethylpyrrolidin-1-yl]pyridine-3-carboxamide]	+++ (“+++” means <3 uM)
CCOc1cc(C)n(-c2ccc(C(=O)NS(=O)(=O)c3cccc(N)n3)c(N3C[C@@H](C)CC3(C)C)n2)n1 [Compound 1473, N-[(6-amino-2-pyridyl)sulfonyl]-6-(3-ethoxy-5-methyl-pyrazol-1-yl)-2-[(4S)-2,2,4-trimethylpyrrolidin-1-yl]pyridine-3-carboxamide]	+++ (“+++” means <3 uM)
CCOc1cccc2c1CN(Cc1c(C)cc(C)cc1C)C2(C)C(=O)NS(=O)(=O)c1ccccn1 (centres unmarked) [Compound 1474, 4-ethoxy-1-methyl-N-(2-pyridylsulfonyl)-2-[(2,4,6-trimethylphenyl)methyl]isoindoline-1-carboxamide]	+++ (“+++” means <3 uM)
CCC1CCC(c2ccc(C(=O)NS(=O)(=O)c3cccc(N)n3)c(Oc3c(C)cc(C)cc3C)n2)CC1 (centres unmarked) [Compound 1475, N-[(6-amino-2-pyridyl)sulfonyl]-6-(4-ethylcyclohexyl)-2-(2,4,6-trimethylphenoxy)pyridine-3-carboxamide]	+++ (“+++” means <3 uM)
CCOc1cccc2c1CN(Cc1c(C)cc(C)cc1C)[C@@]2(C)C(=O)NS(=O)(=O)c1ccc[nH]c1=O [Compound 1476, (1R)-4-ethoxy-1-methyl-N-[(2-oxo-1H-pyridin-3-yl)sulfonyl]-2-[(2,4,6-trimethylphenyl)methyl]isoindoline-1-carboxamide]	+++ (“+++” means <3 uM)
CC(C)COc1cc(F)cc(-c2ccc(C(=O)NS(=O)(=O)c3cccc(N)n3)c(OC3CCCCC3)n2)c1 [Compound 1477, N-[(6-amino-2-pyridyl)sulfonyl]-2-(cyclohexoxy)-6-(3-fluoro-5-isobutoxy-phenyl)pyridine-3-carboxamide]	+++ (“+++” means <3 uM)
Cc1cccc(C)c1Cn1nc(-c2ccc(OC(C)C)cc2)cc1C(=O)NS(=O)(=O)c1ccccc1 [Compound 1478, N-(benzenesulfonyl)-2-[(2,6-dimethylphenyl)methyl]-5-(4-isopropoxyphenyl)pyrazole-3-carboxamide]	+++ (“+++” means <3 uM)
CC(C)COc1cc(F)cc(-c2ccc(C(=O)NS(=O)(=O)c3cccc(N)n3)c(OC3(Cc4ccccc4)CCC3)n2)c1 [Compound 1479, N-[(6-amino-2-pyridyl)sulfonyl]-2-(1-benzylcyclobutoxy)-6-(3-fluoro-5-isobutoxy-phenyl)pyridine-3-carboxamide]	+++ (“+++” means <3 uM)
CCOc1cccc2c1CN(Cc1c(C)cc(C)cc1C)C2(C)C(=O)NS(=O)(=O)c1ccc(N)cc1 (centres unmarked) [Compound 1480, N-(4-aminophenyl)sulfonyl-4-ethoxy-1-methyl-2-[(2,4,6-trimethylphenyl)methyl]isoindoline-1-carboxamide]	+++ (“+++” means <3 uM)
Cc1cc(C)c(Oc2nc(C(C)(C)C)ccc2C(=O)N=S(N)(=O)c2cccc(N)n2)c(C)c1 (centres unmarked) [Compound 1481, N-[amino-(6-amino-2-pyridyl)-oxo-$1^6-sulfanylidene]-6-tert-butyl-2-(2,4,6-trimethylphenoxy)pyridine-3-carboxamide]	+++ (“+++” means <3 uM)
